In general, IC50 refers to the point on the concentration scale where inhibition reaches its midpoint. The low end stands for greater potency in that assay, the high end for weaker potency in that assay.

The values below come from patent publication US5021430A, “Certain N-substituted butyramide derivatives” (Ciba-Geigy Corporation, priority 1987, dated 1991).

This assay deals with T1, enkephalinase (Rattus norvegicus, UniProt P07861).
T1 construct: synaptic membrane preparation from rat striatum; from tissue; host or cells: rat striatum, synaptic membrane preparation
T1 sequence (P07861 1-750): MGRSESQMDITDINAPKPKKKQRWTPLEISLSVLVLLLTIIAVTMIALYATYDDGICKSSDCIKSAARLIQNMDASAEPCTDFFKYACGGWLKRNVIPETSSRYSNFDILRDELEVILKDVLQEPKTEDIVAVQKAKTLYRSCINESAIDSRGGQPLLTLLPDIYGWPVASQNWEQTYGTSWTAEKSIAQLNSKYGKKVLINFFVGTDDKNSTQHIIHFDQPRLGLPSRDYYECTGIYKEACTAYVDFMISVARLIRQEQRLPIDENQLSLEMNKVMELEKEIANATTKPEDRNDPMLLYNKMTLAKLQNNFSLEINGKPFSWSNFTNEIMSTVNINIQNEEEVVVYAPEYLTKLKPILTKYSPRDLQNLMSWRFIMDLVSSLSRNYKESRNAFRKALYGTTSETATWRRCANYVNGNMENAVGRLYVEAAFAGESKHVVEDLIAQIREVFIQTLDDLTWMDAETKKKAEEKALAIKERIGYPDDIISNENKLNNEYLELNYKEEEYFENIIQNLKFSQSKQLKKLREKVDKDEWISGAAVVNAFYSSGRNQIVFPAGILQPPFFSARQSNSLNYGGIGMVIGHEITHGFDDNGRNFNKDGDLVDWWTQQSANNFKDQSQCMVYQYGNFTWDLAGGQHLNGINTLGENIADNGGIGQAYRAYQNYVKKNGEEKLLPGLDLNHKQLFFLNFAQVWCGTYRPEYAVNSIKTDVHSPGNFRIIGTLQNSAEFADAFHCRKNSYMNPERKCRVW
The assay can be described thus: enkephalinase inhibitory activity in vitro (inhibition of 3H-Tyr-gly-gly generation from 3H-Leu-enkephalin). It is filed as biochemical. The note with it: rat striatum synaptic membrane preparation, pH 6.5, 3H-Leu-enkephalin, 15 minutes at 30° C., 10^-6 M Bestatin. The method, then:
The enkephalinase inhibitory activity is determined in vitro by an adaptation of the method of Alstein et al. as described in Life Sciences 28, 185 (1981), as follows:
A mixture of a solution of the test compound in distilled water or distilled water and ethanol diluted with pH 6.5 buffer and of a synaptic membrane preparation from rat striatum is incubated at pH 6.5 with ^3 H-Leu-enkephalin for 15 minutes at 30° C., in the presence of 10^-6 M Bestatin (to inhibit aminopeptidase activity). The reaction is stopped by the addition of 30% acetic acid and the reaction product ^3 H-Tyr-gly-gly is separated from unreacted ^3 H-Leu-enkephalin on a Porapak O column followed by a Cu^++-chelex column. The ^3 H-Tyr-gly-gly is counted by liquid scintillation. The amount of ^3 H-Tyr-gly-gly generated in the presence of test compound as compared to control is then calculated. An IC50 value representing the concentration of test compound required for 50% inhibition of ^3 H-Tyr-gly-gly generation is then determined graphically.

On to `O=C(O)[C@H](Cc1ccccc1)C[C@@H](Cc1ccccc1)C(=O)N[C@@H](CCc1ccccc1)C(=O)O` [N-[(S,S)-2,4-dibenzyl-4-carboxybutyryl]-(L)-homophenylalanine], for which the IC50 is ~5 nM.
Take `O=C(O)[C@H](Cc1ccccc1)C[C@@H](Cc1ccccc1)C(=O)N[C@@H](CSCc1ccccc1)C(=O)O` [N-[(S,S)-2,4-dibenzyl-4-carboxybutyryl]-S-benzyl-(L)-cysteine]: the half-maximal inhibitory concentration (IC50) is ~6 nM.
As to `O=C(O)[C@H](Cc1ccccc1)C[C@@H](Cc1ccccc1)C(=O)N[C@@H](COCc1ccccc1)C(=O)O` [N-[(S,S)-2,4-dibenzyl-4-carboxybutyryl]-O-benzyl-(L)-serine], the IC50 (unit inferred) is ~4 nM.
